Experimental data: patent US20260232767A1, “INTERLEUKIN-23 RECEPTOR ANTAGONIST PEPTIDES FOR USE IN THE TREATMENT OF PSORIASIS” (Janssen Pharmaceutica NV, priority 2023, published 2026)

Test system: subjects with moderate-to-severe plaque psoriasis
Assay: IGA score, Example 1
Type: in vivo, human
Experimental: The Investigator's Global Assessment (IGA) documents the investigator's assessment of the participant's psoriasis at a given time point. Overall lesions are graded for induration, erythema, and scaling. The participant's psoriasis is assessed as cleared (0), minimal (1), mild (2), moderate (3), or severe (4).
This was a randomized, double-blind, placebo-controlled, dose-ranging, parallel group, multicenter, interventional study in subjects with moderate-to-severe plaque psoriasis. A target of 240 subjects were enrolled in this study with 40 subjects planned per intervention group.
Clinician-reported outcomes including Psoriasis Area and Severity Index (PASI), Body Surface Area (BSA), Investigator's Global Assessment (IGA), Nail Psoriasis Area and Severity Index (NAPSI), Fingernail Physician's Global Assessment (f-PGA), Static Physician's Global Assessment of Genitalia (s-PGA-G), Physician's Global Assessment of Hands and/or Feet (hf-PGA), and Scalp Specific Investigator Global Assessment (ss-IGA) were obtained at Week 0, 8, and 16. PASI and IGA were also obtained at Weeks 1, 2, 4, and 12, and at Week 20, four weeks after the administration of the tablets has stopped.

[1] = 100 mg BID, Week 16, trough plasma conc Q2 to <Q3
[2] = 100 mg BID, Week 16, trough plasma conc ≥Q3
[3] = 100 mg QD, Week 16, peak plasma conc. <Q1, N=2
[4] = 100 mg QD, Week 16, peak plasma conc. Q1 to <Q2, N=2
[5] = 100 mg QD, Week 16, peak plasma conc. Q2 to <Q3, N=2
[6] = 100 mg QD, Week 16, peak plasma conc. ≥Q3, N=2
[7] = 100 mg QD, Week 16, trough plasma conc <Q1
[8] = 100 mg QD, Week 16, trough plasma conc Q1 to <Q2
[9] = 100 mg QD, Week 16, trough plasma conc Q2 to <Q3
[10] = 100 mg QD, Week 16, trough plasma conc ≥Q3
[11] = Combined doses, Week 16, peak plasma conc. <Q1, N=10
[12] = Combined doses, Week 16, peak plasma conc. Q1 to <Q2, N=11
[13] = Combined doses, Week 16, peak plasma conc. Q2 to <Q3, N=10
[14] = Combined doses, Week 16, peak plasma conc. ≥Q3, N=11
[15] = Combined doses, Week 16, trough plasma conc <Q1
[16] = Combined doses, Week 16, trough plasma conc Q1 to <Q2
[17] = Combined doses, Week 16, trough plasma conc Q2 to <Q3
[18] = Combined doses, Week 16, trough plasma conc ≥Q3
[19] = Week 16, 25 mg BID, intermediate plasma concentration quartile <Q1, N=1
[20] = Week 16, 25 mg BID, intermediate plasma concentration quartile Q1 to <Q2, N=1
[21] = Week 16, 25 mg BID, intermediate plasma concentration quartile Q2 to <Q3, N=1
[22] = Week 16, 25 mg BID, intermediate plasma concentration quartile ≥Q3, N=1
[23] = Week 16, 25 mg QD, intermediate plasma concentration quartile Q1 to <Q2, N=1
[24] = Week 16, 25 mg QD, intermediate plasma concentration quartile Q2 to <Q3, N=1
[25] = Week 16, 25 mg QD, intermediate plasma concentration quartile ≥Q3, N=1
[26] = Week 16, 50 mg QD, intermediate plasma concentration quartile <Q1, N=1
[27] = Week 16, 50 mg QD, intermediate plasma concentration quartile Q1 to <Q2, N=1
[28] = Week 16, 50 mg QD, intermediate plasma concentration quartile Q2 to <Q3, N=1
[29] = Week 16, 50 mg QD, intermediate plasma concentration quartile ≥Q3, N=2
[30] = Week 16, 100 mg BID, intermediate plasma concentration quartile <Q1, N=1
[31] = Week 16, 100 mg BID, intermediate plasma concentration quartile Q1 to <Q2, N=1
[32] = Week 16, 100 mg BID, intermediate plasma concentration quartile Q2 to <Q3, N=1
[33] = Week 16, 100 mg BID, intermediate plasma concentration quartile ≥Q3, N=2
[34] = Week 16, 100 mg QD, intermediate plasma concentration quartile <Q1, N=1
[35] = Week 16, 100 mg QD, intermediate plasma concentration quartile Q1 to <Q2, N=1
[36] = Week 16, 100 mg QD, intermediate plasma concentration quartile Q2 to <Q3, N=1
[37] = Week 16, 100 mg QD, intermediate plasma concentration quartile ≥Q3, N=1
[38] = Week 16, Combined regimens, intermediate plasma concentration quartile <Q1, N=5
[39] = Week 16, Combined regimens, intermediate plasma concentration quartile Q1 to <Q2, N=5
[40] = Week 16, Combined regimens, intermediate plasma concentration quartile Q2 to <Q3, N=5
[41] = Week 16, Combined regimens, intermediate plasma concentration quartile ≥Q3, N=6

SMILES: CC(=O)NCCCC[C@@H]1NC(=O)[C@H](Cc2c[nH]c3c(C)cccc23)NC(=O)[C@H]([C@@H](C)O)NC(=O)[C@H](CC(N)=O)NC(=O)[C@@H](NC(C)=O)C(C)(C)SSC(C)(C)[C@@H](C(=O)N[C@@H](Cc2ccc(OCCN)cc2)C(=O)N[C@@H](Cc2ccc3ccccc3c2)C(=O)NC2(C(=O)N[C@@H](CCC(=O)O)C(=O)N[C@@H](CC(N)=O)C(=O)N[C@@H](Cc3cccnc3)C(=O)N(C)CC(N)=O)CCOCC2)NC1=O [IL-23 receptor antagonist peptide, Ac-[Pen]*-N-T-[W(7-Me)]-[Lys(Ac)]-[Pen]*-Phe[4-(2-aminoethoxy)]-[2-Nal]-[THP]-E-N-[3-Pal]-Sarc-NH2 (*[Pen]-[Pen]* formdisulfidebond)]
- IGA Score = 0 or 1, subjects (100 mg BID, Week 16, trough plasma conc Q1 to <Q2): 4 (80.0%)
- IGA Score = 0, subjects [1]: 2 (40.0%)
- IGA Score = 0 or 1, subjects [1]: 3 (60.0%)
- IGA Score = 0, subjects [2]: 3 (60.0%)
- IGA Score = 0 or 1, subjects [2]: 4 (80.0%)
- IGA 0 or 1 treatment difference vs placebo (100 mg QD, Week 16): 51.2% (34.0%,
- IGA 0 treatment difference vs placebo (100 mg QD, Week 16): 27.9% (14.6%,
- Subjects achieving IGA Score = 0 (100 mg QD, Week 16): 12 (27.9%)
- Subjects achieving IGA Score = 0 or 1 (100 mg QD, Week 16): 27 (62.8%)
- IGA score 0, % (100 mg QD, Week 16, N=43): 27.9%
- IGA score 0/1, % (100 mg QD, Week 16, N=43): 62.8%
- IGA Score = 0, % subjects [3]: (50.0%)
- IGA Score = 0, n subjects [3]: 1
- IGA Score = 0 or 1, % subjects [3]: (50.0%)
- IGA Score = 0 or 1, n subjects [3]: 1
- IGA Score = 0, % subjects [4]: (50.0%)
- IGA Score = 0, n subjects [4]: 1
- IGA Score = 0 or 1, % subjects [4]: (100.0%)
- IGA Score = 0 or 1, n subjects [4]: 2
- IGA Score = 0, % subjects [5]: (50.0%)
- IGA Score = 0, n subjects [5]: 1
- IGA Score = 0 or 1, % subjects [5]: (50.0%)
- IGA Score = 0 or 1, n subjects [5]: 1
- IGA Score = 0, n subjects [6]: 0
- IGA Score = 0 or 1, % subjects [6]: (50.0%)
- IGA Score = 0 or 1, n subjects [6]: 1
- IGA Score = 0, subjects [7]: 3 (60.0%)
- IGA Score = 0 or 1, subjects [7]: 3 (60.0%)
- IGA Score = 0, subjects [8]: 0
- IGA Score = 0 or 1, subjects [8]: 3 (60.0%)
- IGA Score = 0, subjects [9]: 1 (20.0%)
- IGA Score = 0 or 1, subjects [9]: 3 (60.0%)
- IGA Score = 0, subjects [10]: 1 (20.0%)
- IGA Score = 0 or 1, subjects [10]: 3 (60.0%)
- IGA Score = 0, % subjects [11]: (10.0%)
- IGA Score = 0, n subjects [11]: 1
- IGA Score = 0 or 1, % subjects [11]: (30.0%)
- IGA Score = 0 or 1, n subjects [11]: 3
- IGA Score = 0, % subjects [12]: (36.4%)
- IGA Score = 0, n subjects [12]: 4
- IGA Score = 0 or 1, % subjects [12]: (72.7%)
- IGA Score = 0 or 1, n subjects [12]: 8
- IGA Score = 0, % subjects [13]: (30.0%)
- IGA Score = 0, n subjects [13]: 3
- IGA Score = 0 or 1, % subjects [13]: (80.0%)
- IGA Score = 0 or 1, n subjects [13]: 8
- IGA Score = 0, % subjects [14]: (45.5%)
- IGA Score = 0, n subjects [14]: 5
- IGA Score = 0 or 1, % subjects [14]: (63.6%)
- IGA Score = 0 or 1, n subjects [14]: 7
- IGA Score = 0, subjects [15]: 10 (38.5%)
- IGA Score = 0 or 1, subjects [15]: 14 (53.8%)
- IGA Score = 0, subjects [16]: 5 (19.2%)
- IGA Score = 0 or 1, subjects [16]: 12 (46.2%)
- IGA Score = 0, subjects [17]: 5 (19.2%)
- IGA Score = 0 or 1, subjects [17]: 15 (57.7%)
- IGA Score = 0, subjects [18]: 10 (37.0%)
- IGA Score = 0 or 1, subjects [18]: 21 (77.8%)
- IGA Score = 0, subjects n (%) [19]: 0
- IGA Score = 0 or 1, subjects n (%) [19]: 0
- IGA Score = 0, subjects n (%) [20]: 0
- IGA Score = 0 or 1, subjects n (%) [20]: 1 (100.0%)
- IGA Score = 0, subjects n (%) [21]: 0
- IGA Score = 0 or 1, subjects n (%) [21]: 0
- IGA Score = 0, subjects n (%) [22]: 0
- IGA Score = 0 or 1, subjects n (%) [22]: 1 (100.0%)
- IGA Score = 0, subjects n (%) [23]: 0
- IGA Score = 0 or 1, subjects n (%) [23]: 0
- IGA Score = 0, subjects n (%) [24]: 1 (100.0%)
- IGA Score = 0 or 1, subjects n (%) [24]: 1 (100.0%)
- IGA Score = 0, subjects n (%) [25]: 0
- IGA Score = 0 or 1, subjects n (%) [25]: 0
- IGA Score = 0, subjects n (%) [26]: 0
- IGA Score = 0 or 1, subjects n (%) [26]: 0
- IGA Score = 0, subjects n (%) [27]: 1 (100.0%)
- IGA Score = 0 or 1, subjects n (%) [27]: 1 (100.0%)
- IGA Score = 0, subjects n (%) [28]: 1 (100.0%)
- IGA Score = 0 or 1, subjects n (%) [28]: 1 (100.0%)
- IGA Score = 0, subjects n (%) [29]: 0
- IGA Score = 0 or 1, subjects n (%) [29]: 1 (50.0%)
- IGA Score = 0, subjects n (%) [30]: 1 (100.0%)
- IGA Score = 0 or 1, subjects n (%) [30]: 1 (100.0%)
- IGA Score = 0, subjects n (%) [31]: 1 (100.0%)
- IGA Score = 0 or 1, subjects n (%) [31]: 1 (100.0%)
- IGA Score = 0, subjects n (%) [32]: 0
- IGA Score = 0 or 1, subjects n (%) [32]: 0
- IGA Score = 0, subjects n (%) [33]: 2 (100.0%)
- IGA Score = 0 or 1, subjects n (%) [33]: 2 (100.0%)
- IGA Score = 0, subjects n (%) [34]: 1 (100.0%)
- IGA Score = 0 or 1, subjects n (%) [34]: 1 (100.0%)
- IGA Score = 0, subjects n (%) [35]: 1 (100.0%)
- IGA Score = 0 or 1, subjects n (%) [35]: 1 (100.0%)
- IGA Score = 0, subjects n (%) [36]: 0
- IGA Score = 0 or 1, subjects n (%) [36]: 1 (100.0%)
- IGA Score = 0, subjects n (%) [37]: 0
- IGA Score = 0 or 1, subjects n (%) [37]: 1 (100.0%)
- IGA Score = 0, subjects n (%) [38]: 3 (60.0%)
- IGA Score = 0 or 1, subjects n (%) [38]: 3 (60.0%)
- IGA Score = 0, subjects n (%) [39]: 2 (40.0%)
- IGA Score = 0 or 1, subjects n (%) [39]: 3 (60.0%)
- IGA Score = 0, subjects n (%) [40]: 1 (20.0%)
- IGA Score = 0 or 1, subjects n (%) [40]: 3 (60.0%)
- IGA Score = 0, subjects n (%) [41]: 3 (50.0%)
- IGA Score = 0 or 1, subjects n (%) [41]: 5 (83.3%)
